{"source": "patent US4956355A", "about": "“Agents for the arrest and therapy of retroviral infections” (Colthurst Limited, priority 1987, dated 1990)", "key": {"[1]": {"tested_on": "HIV in VB T lymphoma cell line", "experiment": "Inhibition of HIV mediated cytopathic effects (multinucleated giant/syncytial cell formation) in acutely infected VB tumor cell line", "type": "cell-based", "experimental": "(§1) 1. […] All three viral strains were grown in the Tissue Culture Laboratory of the AIDS Activity Division of San Francisco General Hospital where titers of […] infectious units per ml were routinely achieved.\n(§2) 2. Source of cells: The VB cell line used in Example 1 is a T lymphoma cell line that is highly susceptible to infection with HIV, and expresses high levels of cell surface CD4 molecules. This cell line forms syncytia within two days after infection with all strains of HIV tested to date. […] This is used to quantitate infection in the absence of syncytial formation, infection being quantitated by immunofluorescence assays. The HXB/H9 cell line (Example 6) is an H9 cell population that chronically produces the HTLV-IIIB strain of HIV and is utilised in experiments testing antiviral effects on chronically infected cell lines. Human macrophages were prepared from peripheral blood mononuclear cells either obtained from the blood bank as a buffy coat, or as a leukophoresis preparation. Crowe et al. supra have devised an assay system that allows quantitation of HIV infection, and inhibition of infection using immunocytofluorographic analysis. In order to quantitate HIV infection in macrophages, they grow macrophages in Teflon (Trade Mark) culture vessels which maintain macrophages in suspension in vitro culture for up to six months. Cell surface and cytoplasmic immunofluorescence staining is then performed to quantitate antigens in macrophages by flow cytometry.\n5. Inhibition of acute infection: Several assays were utilized to test for inhibition of acute infection; these included:\n(a) Inhibition of multinucleated giant cell formation in acutely infected VB cells infected at a multiplicity of infection of 1, and scored two days after infection in the presence or absence of varying concentrations of drug, for the formation of multinucleated giant cells. (free virus is washed out after a one hour incubation pretreatment at room temperature). […] Supernatants were also isolated and the level of HIV p24 antigen determined. Infectious virus was measured in treated cultures by performing a syncytial assay as described above.\n(§3) Compounds A and B were tested for inhibition of T lymphoma cell cytopathic effect at various drug concentrations after acute infection with HIV for 48 hours. […] It is possible that the diminished effects noted in later experiments could have been secondary to drug stability problems."}, "[2]": {"tested_on": "HIV in activated peripheral blood lymphocytes", "experiment": "Inhibition of HIV mediated cytopathic effects / p24 antigen production in activated peripheral blood lymphocytes", "type": "cell-based", "details": "for p24 antigen production: activated PBL, about 7 days after infection, FIG. 2", "experimental": "as §1\n(§4) 4. HIV soluble p24 antigen detection: Soluble p24 antigens were measured with the Abbott HIV antigen detection system.\n(b) Although the VB T lymphoma cell line behaves in a similar manner to peripheral blood CD4 positive T lymphocytes in regard to HIV induced cytopathic effects, the above described experiments were performed on phytohemagglutinin (PHA) activated lymphocytes to determine whether lymphocytes are more or less sensitive to Compounds A and B than is the VB cell line. In this assay system, at the time that multinucleated giant cells appeared within infected lymphocyte cultures, the supernatants were analyzed for the presence of HIV p24 antigens and were titered on indicator VB lymphoma cells to determine the titer of infectious virus present at each point.\nTo test whether the effects of compounds A and B on acute VB T lymphoma infection would be mimicked by activated peripheral blood lymphocytes (PBC), HIV at a multiplicity of infection of one was added to lymphocytes that had been activated for 48 hours with 2 μg per ml of PHA. After the initial infection for one hour, the activated lymphocytes were washed and resuspended for the one week of culture. Multinucleated giant cells began to form approximately 7 days after the initial infection, at which time the culture supernatants were harvested and tested for the presence of HIV p24 antigens. The accumulation of HIV p24 antigens in the supernatant is representative of production of HIV from infected cells."}, "HIV in human macrophages [3]": {"tested_on": "HIV in human macrophages", "experiment": "Inhibition of HIV production in normal human macrophages (supernatant p24, acute infection)", "type": "cell-based", "experimental": "as §1, §2, §4\n(c) To test whether Compounds A and B were effective at blocking acute infection of macrophages, macrophages from Teflon cultures were exposed at a multiplicity of 1 to HIV-DV in the presence or absence of various concentrations of drug (Examples 3-5). Normally, HIV expression peaks in human macrophages at approximately ten days after initial infection. Therefore, after infection for one hour at room temperature, followed by a wash and resuspension of the macrophages in various drug concentrations, macrophages were stained for the presence of p24 antigen at day ten. Culture supernatants from these macrophages were assayed for the presence of soluble p24, and infectious virus as described above.\nTo test whether compounds A and B might be active at inhibiting infection of normal human macrophages, a spectrum of drug concentrations were tested for inhibition of acute infection, and inhibition of HIV expression in chronically infected macrophages. […] After acute infection (one hour) cells were incubated in various concentrations of compounds A and B, and 7 days after the initial infection supernatants were harvested for p24 antigen quantitation. […]"}, "HIV in human macrophages [4]": {"tested_on": "HIV in human macrophages", "experiment": "Inhibition of cytoplasmic HIV p24 antigen in HIV-infected macrophages", "type": "cell-based", "details": "10^-4 molar; three donors; FIG. 4", "experimental": "as §1, §2\n3. Flow cytometry: An Ortho Cytofluorgraf II-S (Trade Mark) that has a biohazard containment flow cell was used for analysis of HIV infected samples. HIV p24 antigens were detected utilizing a mouse monoclonal anti-p24 (du Pont), and mouse antibodies were identified utilizing an FITC conjugated goat anti-mouse IgG. […]\nThe cells from the experiment described in Example 3 were analysed, and the cytoplasm was analysed for the presence of HIV p24 to directly test whether HIV p24 antigen production was inhibited within those infected cells. […]"}, "HIV in HXB/H9 cell line": {"tested_on": "HIV in HXB/H9 cell line", "experiment": "Antiviral testing of chronically HIV infected cell line HXB", "type": "cell-based", "details": "other than killing with compound B at 10^-4 molar", "experimental": "as §1\nas §2, with “Human macrophages were prepared from peripheral blood mononuclear cells either obtained from the blood bank as a buffy coat, or as a leukophoresis preparation.” left out, “cytometry. […]” for “cytometry.”"}, "[5]": {"tested_on": "HIV in chronically infected human macrophages", "experiment": "Antiviral testing of chronically HIV infected macrophages", "type": "cell-based", "description": "as §2\n3. Flow cytometry: An Ortho Cytofluorgraf II-S (Trade Mark) that has a biohazard containment flow cell was used for analysis of HIV infected samples. HIV p24 antigens were detected utilizing a mouse monoclonal anti-p24 (du Pont), and mouse antibodies were identified utilizing an FITC conjugated goat anti-mouse IgG.\n6. Analysis of chronically infected cells: To determine whether compounds A and B are effective at inhibiting HIV expression in macrophages and chronically infected T cells, the following experiments were performed. The chronically infected T cell line, HXB/H9 was exposed to various concentrations of drug for four days in vitro. At four days, the HXB cells were assayed for the presence of p24 intracytoplasmically, and supernatants were assayed for the presence of infectious virus as described above.\nBecause macrophages can be infected and produce HIV for very long periods of time without substantial loss of viability, chronically infected cells were tested, specifically a population that was between 30 and 50% HIV antigen positive, for inhibition of cytoplasmic HIV p24 antigen production. FIG. 5 indicates the results of three separate experiments carried out."}, "VB T lymphoma cell line": {"tested_on": "VB T lymphoma cell line", "experiment": "Nonspecific toxicity to VB cell line", "type": "cell-based, human", "details": "10^-4 molar", "experimental": "(§5) 7. Analysis of nonspecific toxicity to the target cells with Compounds A and B. The VB, H9 and HXB cell lines were exposed to different concentrations of Compounds A and B as were normal human macrophages for the length of time the drug was in contact with each cell line as described in the above assays. Cell numbers were counted, and live versus dead were determined by Trypan blue exclusion assays. These tests were required to determine a therapeutic index between nonspecific toxic effects on the described cells, compared with potential effective antiviral effects in vitro (Example 6).\nas §3"}, "[6]": {"tested_on": "peripheral blood lymphocytes", "experiment": "Nonspecific toxicity to peripheral blood lymphocytes", "type": "cell-based, human"}, "normal human macrophages": {"tested_on": "normal human macrophages", "experiment": "Nonspecific toxicity to normal human macrophages", "type": "cell-based", "experimental": "as §5"}, "HXB cell line": {"tested_on": "HXB cell line", "experiment": "Killing of HXB cells", "type": "cell-based, human", "details": "10^-4 molar", "experimental": "as §5"}, "tumor cell lines": {"tested_on": "tumor cell lines", "experiment": "Toxicity to tumor cell lines, Examples 1 to 7", "type": "cell-based, human", "details": "10^-4 molar; all experiments of Examples 1 to 7", "experimental": "as §5"}, "HIV": {"tested_on": "HIV", "experiment": "Oral dehydroepiandrosterone sulphate in AIDS patients, T4 cell count", "type": "in vivo, human patients", "details": "patients X and Y, 300 mg once per day then 100 mg, day 5 to day 17", "experimental": "Dehydroepiandrosterone sulphate was measured into unit doses of 300 mg and 100 mg and each unit dose enclosed in a soft gelatin capsule.\n(A) A patient sero positive for HIV and diagnosed as suffering from AIDS was treated as follows. For twelve consecutive days, the patient was treated by administering the encapsulated compound orally to the patient. For the first eleven days, a unit dose of 300 mg was administered, once per day. On the twelfth day, the patient was given a single unit dose of 100 mg of the compound.\nBlood samples were taken from the patients on five occasions over the twenty-six day period. The first tests were carried out on each patient on day 1 and included measurements of T1, T4 and T8 cell counts, as well as, sedimentation rate. The treatment commenced on day 5, and continued to day 17. From day 5 to day 16, each patient, as already discussed, received a single unit dose of 300 mg of dehydroepiandrosterone sulphate orally and on day 17 100 mg was administered. The aforementioned tests were repeated on each patient on day 9, day 17, day 24 and day 26."}}, "data": [{"smiles": "C[C@]12CC[C@H](O)C[C@@H]1CC[C@@H]1[C@@H]2CC[C@]2(C)C(=O)[C@H](Br)C[C@@H]12", "note": "[B, 16α-bromoepiandrosterone]", "values": [{"measurement": "inhibition of HIV mediated multinucleated syncytial cell formation, compared with compound A", "setting": "[1]; VB cells, acute infection, 48 hours, FIG. 1, average of two experiments", "value": "more active"}, {"measurement": "antiviral effects in comparison with AZT, T lymphoma cells", "setting": "[1]; acute infection", "value": "inferior"}, {"measurement": "antiviral effect in acute infection studies of T lymphoma cells", "setting": "[1]; acute infection, conclusions", "value": "mild antiviral effect"}, {"measurement": "inhibition of cytopathic effect in two subsequent experiments", "setting": "[1]; compounds diluted in DMSO, possibly secondary to drug stability problems", "value": "less striking effect"}, {"measurement": "p24 antigen production", "setting": "[2]; 10^-4 molar", "value": "moderately inhibited"}, {"measurement": "p24 antigen production", "setting": "[2]; 10^-5 molar", "value": "slightly less inhibited"}, {"measurement": "antiviral effects in comparison with AZT, lymphocytes", "setting": "[2]; acute infection", "value": "inferior"}, {"measurement": "antiviral effect in acute infection studies of lymphocytes", "setting": "[2]; acute infection, conclusions", "value": "mild antiviral effect"}, {"measurement": "decrease in production of HIV p24 antigens (supernatant)", "setting": "HIV in human macrophages [3]; 10^-4 through 10^-8 molar, 7 days after acute infection, FIG. 3", "value": "approximately 50%"}, {"measurement": "HIV infection and HIV expression in macrophages", "setting": "HIV in human macrophages [3]; in vitro, reproducible, six separate monocyte/macrophage donors", "value": "inhibit HIV infection and HIV expression in macrophages"}, {"measurement": "HIV p24 cytoplasmic antigen production", "setting": "HIV in human macrophages [4]", "value": "substantially inhibited"}, {"measurement": "inhibition of HIV production of cytopathic effects in chronically infected lymphoma cell line", "setting": "HIV in HXB/H9 cell line", "value": "no specific inhibition"}, {"measurement": "inhibition compared with inhibition of acute infection of macrophages", "setting": "[5]; 10^-4 and 10^-5 molar, FIG. 5 vs FIG. 4", "value": "somewhat less than the inhibition of acute infection of macrophages"}, {"measurement": "inhibition of cytoplasmic HIV p24 antigen production in chronically infected macrophages", "setting": "[5]; both 10^-4 and 10^-5 molar, three experiments, FIG. 5", "value": "some inhibition"}, {"measurement": "toxicity to VB T lymphoma cell line", "setting": "VB T lymphoma cell line", "value": "extremely toxic"}, {"measurement": "toxicity with the PBL cultures", "setting": "[6]; 10^-4 and 10^-5 molar", "value": "No appreciable toxicity"}, {"measurement": "extreme toxicity seen in VB cells, in normal peripheral blood lymphocytes", "setting": "[6]; 10^-4 molar", "value": "not shared by either the normal peripheral blood lymphocytes or macrophages"}, {"measurement": "toxicity to peripheral blood lymphocytes", "setting": "[6]; 10^-4 to 10^-8 molar", "value": "nor was there appreciable toxicity"}, {"measurement": "extreme toxicity seen in VB cells, in macrophages", "setting": "normal human macrophages; 10^-4 molar", "value": "not shared by either the normal peripheral blood lymphocytes or macrophages"}, {"measurement": "toxicity in normal macrophages", "setting": "normal human macrophages; 10^-4 to 10^-8 molar", "value": "not appreciable toxicity"}, {"measurement": "killing of HXB cells", "setting": "HXB cell line", "value": "killing"}, {"measurement": "toxicity to tumor cell lines", "setting": "tumor cell lines", "value": "appreciable toxicity"}]}, {"smiles": "C[C@]12CC[C@H](OS(=O)(=O)O)CC1=CC[C@@H]1[C@@H]2CC[C@]2(C)C(=O)CC[C@@H]12", "note": "[dehydroepiandrosterone sulphate]", "values": [{"measurement": "T4 cell count", "setting": "HIV", "value": "stabilise"}]}]}
